{"source": "paper PMC2424174", "about": "“Suppression of Tumor Growth and Angiogenesis by a Specific Antagonist of the Cell-Surface Expressed Nucleolin” (PLoS ONE, 2008)", "key": {"ERK1/2": {"tested_on": "ERK1/2", "experiment": "Serum-induced phosphorylation of ERK1/2", "type": "cell-based, human", "settings": "2, 5 and 10 µM HB-19; 5 min after 10% FBS", "description": "Figure 5 Cell cycle perturbations induced by HB-19 treatment. (A) Analysis of cell cycle parameters in HB-19 treated cells. MDA-MB-231 cells were cultured for 48 hours in medium without FBS (starvation) or in medium containing 10% FBS supplemented or not with 10 µM HB-19. DNA synthesis was quantified after BrdU incorporation and staining with anti-BrdU antibody and 7-AAD, by FACScan analysis. The histograms indicate the relative amount of cells in G1, S and G2/M cell phases. […] Serum starved MDA-MB-231 cells were stimulated with 10% FBS in the absence or presence of 2, 5, and 10 µM of HB-19. Five minutes after serum stimulation, cells were lysed directly in electrophoresis sample buffer and processed for immunoblotting using anti-phospho-p42/44 ERK1/2 and anti-p42/44 ERK antibodies. NS stands for non-stimulated cells."}, "[1]": {"experiment": "Blood cell count in tumor bearing mice", "type": "in vivo, mouse", "settings": "3 times/week, 8 weeks", "description": "(§1) Figure 8 HB-19 inhibits tumor growth in the nude mice. (A) HB-19 inhibits the growth of MDA-MB-231 tumor-cell xenografts. Cells (2×10^6) were injected subcutaneously into the right flank of female nude mice. Two weeks later, mice with a palpable tumor of approximately 40 mm^3 in volume were randomly separated into three groups (n = 5) and were given peritumoral injections 3 times/week of 0.1 ml PBS alone (Control), HB-19 (5 mg/kg), or Tamoxifen (Tmx) 10 mg/kg) for 6 weeks. (B) HB-19 inhibits the growth of MDA-MB-435 tumor-cell xenografts. Cells (1×10^6) were injected in the mammary fat pad of female nude mice. Two weeks later, mice with a palpable tumor were randomly separated into three groups (n = 10) and were given intraperitoneal injections 3 times/week of 0.1 ml PBS alone (Control), HB-19 (5 mg/kg), or 5-fluouracil (5-FU, 40 mg/kg) for 8 weeks. At the end of each experiment (in A and B), mice were sacrificed and the tumors were excised and weighed. The results are presented as the mean weight ±standard deviation (±S.D.) obtained from the number of mice in each group. (C, D) Inhibition of tumor development in mice treated by intraperitoneal (i.p.) and subcutaneous (s.c.) administration of HB-19. MDA-MB-231 tumor bearing mice in three groups (n = 10) were treated with HB-19 (10 mg/kg) by i.p. or s.c. injections, 3 times/week for 28 days. […] Statistical significance: *p<0.05, **p<0.01, ***p<0.001.\nBlood samples were collected by cardiac puncture. Hematocrit level, white blood cells and platelets count were determined individually in whole blood anticoagulated with EDTA (1 mM) at room temperature. Blood cell count was analyzed with an automated flow cytometric blood cell counter (Cell-Dyn 3500, Abbott Laboratories, Rungis, France)."}, "[2]": {"tested_on": "CD31 endothelial marker in tumors", "experiment": "Tumor vascularization, CD31 immunohistochemistry", "type": "in vivo, mouse", "settings": "CD31 staining; HB-19 5 mg/kg or 5-FU 40 mg/kg, intraperitoneal, 8 weeks; compared to untreated tumors", "description": "Figure 9 Reduced density of blood vessels in HB-19 treated tumor-bearing mice. Sections of tumors recovered from mice, untreated control and treated with either HB-19 or 5-FU (experiment described in Figure 8B) were stained with antibodies against the CD31 endothelial marker and analyzed by fluorescence microscopy. […] Angiogenesis was quantified by image analysis of CD31-labeled endothelial cells.\nImmediately after surgical resection, tumors, were frozen in liquid nitrogen and fixed for 20 min in acetone at 4°C or fixed with 4% PFA for paraffin inclusion. The sections of 8 µm were re-hydrated and saturated in PBS containing 1% BSA and 2% normal goat serum. To visualize tumor endothelial cells, sections were incubated with a Rat anti-mouse CD31 monoclonal antibody (1∶50) in saturation buffer 1 hour at room temperature. After two washes in PBS, sections were incubated for 1 hour at room temperature with biotinylated goat anti-Rat IgG (1∶1000 dilution; Chemicon International Inc., Temecula, CA) in saturation buffer, followed by three washes in PBS and incubation with the avidin-biotinylated-alkaline phosphatase complex (Vector Laboratories). […] Angiogenesis was quantified by Image analysis of CD31-labeled endothelial cells. The EC density in each field was expressed as the ratio of EC area/total area examined ×100 (%). […]"}, "[3]": {"tested_on": "MDA-MB-231 tumor-cell xenografts", "experiment": "MDA-MB-231 xenograft in nude mice", "type": "in vivo, human", "description": "as §1"}, "U87MG cells": {"tested_on": "U87MG cells", "experiment": "Colony formation in soft agar, U87MG", "type": "cell-based, human", "settings": "5 µM HB-19, U87MG", "description": "(§2) Figure 4 HB-19 inhibits colony formation in soft agar by tumor cell lines. (A) MDA-MB-231 cells in culture medium were seeded in triplicate in the absence (histogram C) or presence of 0.1, 0.5 and 1 of µM HB-19, or 0.1 µM of the anti-nucleolin mAb MS-3 or control IgG, or 10 µM bisphosphonate (BisP). (B) Various tumor cell lines (as indicated) in culture medium were seeded in triplicate in the absence (histogram Control) or presence of 5 µM HB-19. After 10–21 days, colonies with diameters greater than 50 µm were scored as positive. Statistical significance: *0.01<p<[…], **p<0.01, ***p<0.001.\n(§3) Carcinoma cells (2×10^4) were mixed in 0.35% top agar, diluted in complete medium (DMEM containing 10% FBS) in the absence or presence of HB-19, and plated onto 0.8% bottom agar into 12-well plates. Cells were treated twice a week during 10 to 21 days. Colonies with diameters greater than 50 µm were scored as positive using a phase contrast microscope equipped with a measuring grid at magnification 100× [45]. The number of colonies was determined by analyzing 5 fields/well from 3 wells and the test was repeated at least twice."}, "MDA-MB-435 cells": {"tested_on": "MDA-MB-435 cells", "experiment": "Colony formation in soft agar, MDA-MB-435", "type": "cell-based, human", "settings": "5 µM HB-19, MDA-MB-435", "description": "as §2, §3"}, "[4]": {"settings": "HB-19 10 mg/kg, intraperitoneal, 3 times/week, 28 days, n = 10"}}}
{"substance": "pseudo-tripeptide Lysψ(CH2N)-Pro-Arg coupled to a template (H2NLys-Lys-Lys-Gly-Pro-Lys-Glu-Lys-AhxCONH2) [HB-19, pseudopeptide presenting pentavalently the pseudo-tripeptide Lysψ(CH2N)-Pro-Arg coupled to a template]", "values": [{"measurement": "serum-stimulated ERK1/ERK2 phosphorylation", "setting": "ERK1/2", "result": "prevents enhanced phosphorylation of ERK1/ERK2"}, {"measurement": "Eosinophils", "setting": "[1]; HB-19 5 mg/kg or 5-FU 40 mg/kg i.p., mean ± SD, n = 10, untreated 0.01±0.02", "result": "0.03±0.04 ×10^3/µl"}, {"measurement": "Basophils", "setting": "[1]; HB-19 5 mg/kg or 5-FU 40 mg/kg i.p., mean ± SD, n = 10, untreated 0.10±0.06", "result": "0.09±0.04 ×10^3/µl"}, {"measurement": "Monocytes", "setting": "[1]; HB-19 5 mg/kg or 5-FU 40 mg/kg i.p., mean ± SD, n = 10, untreated 0.20±0.09", "result": "0.23±0.07 ×10^3/µl"}, {"measurement": "Neutrophils", "setting": "[1]; HB-19 5 mg/kg or 5-FU 40 mg/kg i.p., mean ± SD, n = 10, untreated 0.89±0.39, 5-FU p<0.05", "result": "1.03±0.44 ×10^3/µl"}, {"measurement": "Lymphocytes", "setting": "[1]; HB-19 5 mg/kg or 5-FU 40 mg/kg i.p., mean ± SD, n = 10, untreated 1.84±0.78, 5-FU p<0.01", "result": "1.98±1.01 ×10^3/µl"}, {"measurement": "Leukocytes", "setting": "[1]; HB-19 5 mg/kg or 5-FU 40 mg/kg i.p., mean ± SD, n = 10, untreated 3.05±1.29, 5-FU p<0.05", "result": "3.36±1.28 ×10^3/µl"}, {"measurement": "Erythrocytes", "setting": "[1]; HB-19 5 mg/kg or 5-FU 40 mg/kg i.p., mean ± SD, n = 10, untreated 8.73±0.26, 5-FU p<0.0001", "result": "8.31±1.05 ×10^6/µl"}, {"measurement": "Platelets", "setting": "[1]; HB-19 5 mg/kg or 5-FU 40 mg/kg i.p., mean ± SD, n = 10, untreated 1041±91", "result": "1037± 225 ×10^3/µl"}, {"measurement": "effect on number of platelets, erythrocytes and leukocytes", "setting": "[1]; HB-19 5 mg/kg, intraperitoneal", "result": "no effect on the number of platelets, erythrocytes, and leukocytes"}, {"measurement": "inhibition of tumor vascularization", "setting": "[2]", "result": "significantly inhibited tumor vascularization"}, {"measurement": "antitumoral activity compared with tamoxifen", "setting": "[3]; HB-19 5 mg/kg vs tamoxifen 10 mg/kg, peritumoral", "result": "superior to the conventional cancer drug tamoxifen"}, {"measurement": "tumor elimination", "setting": "[3]; HB-19 5 mg/kg, peritumoral, 3 times/week, 6 weeks", "result": "in some cases eliminated measurable tumors"}, {"measurement": "inhibition of tumor growth", "setting": "[3]; HB-19 5 mg/kg, peritumoral, 3 times/week, 6 weeks, n = 5", "result": "> 95", "unit": "%"}, {"measurement": "complete eradication of the tumor", "setting": "[3]; [4]", "result": "Complete eradication of the tumor was observed in several mice"}, {"measurement": "inhibition in tumor volume", "setting": "[3]; [4]", "result": "more than 95%"}, {"measurement": "inhibition in tumor volume", "setting": "[3]; HB-19 10 mg/kg, subcutaneous, 3 times/week, 28 days, n = 10", "result": "more than 95%"}, {"measurement": "colony formation", "setting": "U87MG cells", "result": "reduced markedly"}, {"measurement": "colony formation", "setting": "MDA-MB-435 cells", "result": "reduced markedly"}]}
